Counter-ions that a name gives are not always drawn.
target: SHP2 (Homo sapiens (Human), UniProt Q06124); experiment: SHP2 Allosteric Inhibition Assay (DiFMUP prompt fluorescence); type: biochemical; conditions: 0.25 nM SHP2 activated with 0.5 μM peptide IRS1_pY1172(dPEG8)pY1222; substrate DiFMUP 100 μM; 25° C.

IC50 [nM]	Compound
< 1000	CNC(=O)N1CCN(c2n[nH]c3nc(N4CCC(C)(CN)CC4)cnc23)c2ccccc21 [Compound 189]
< 1000	CC1(CN)CCN(c2cnc3c(N4CCNc5ccccc54)n[nH]c3n2)CC1 [Compound 190]
< 1000	CSc1cccc2c1CCCN2c1n[nH]c2nc(N3CCC(C)(CN)CC3)cnc12 [Compound 191]
< 1000	C[S+]([O-])c1cccc2c1CCCN2c1n[nH]c2nc(N3CCC(C)(CN)CC3)cnc12 (stereo not drawn) [Compound 192]
< 1000	CCC(=O)N1CCN(c2n[nH]c3nc(N4CCC(C)(CN)CC4)cnc23)c2ccccc21 [Compound 193]
< 1000	CC1(CN)CCN(c2cnc3c(N4CCN(C(=O)CO)c5ccccc54)n[nH]c3n2)CC1 [Compound 194, 1-(4-(6-(4-(aminomethyl)-4-methylpiperidin-1-yl)-1H-pyrazolo[3,4-b]pyrazin-3-yl)-3,4-dihydroquinoxalin-1(2H)-yl)-2-hydroxyethan-1-one]
< 1000	CN1CCN(c2n[nH]c3nc(N4CCC(C)(CN)CC4)cnc23)c2ccc(Cl)nc21 [Compound 195]
< 1000	C[C@H]1CCN(c2n[nH]c3nc(N4CCC(C)(CN)CC4)cnc23)c2ccc(-c3nnc[nH]3)nc21 [Compound 198, 1-(4-methyl-1-{3-[(4S)-4-methyl-6-(4H-1,2,4-triazol-3-yl)-1,2,3,4-tetrahydro-1,5-naphthyridin-1-yl]-1H-pyrazolo[3,4-b]pyrazin-6-yl}piperidin-4-yl)methanamine]
< 1000	C[C@@H]1CCN(c2n[nH]c3nc(N4CCC(C)(CN)CC4)cnc23)c2ccc(-c3nnc[nH]3)nc21 [Compound 199, 1-(4-methyl-1-{3-[(4R)-4-methyl-6-(4H-1,2,4-triazol-3-yl)-1,2,3,4-tetrahydro-1,5-naphthyridin-1-yl]-1H-pyrazolo[3,4-b]pyrazin-6-yl}piperidin-4-yl)methanamine]
≥ 10000	C[C@@H]1OCC2(CCN(c3cnc4c(N5CCCc6ncccc65)n[nH]c4n3)CC2)C1O (stereo partly drawn) [Compound 201, (3S)-8-(3-(3,4-dihydro-1,5-naphthyridin-1(2H)-yl)-1H-pyrazolo[3,4-b]pyrazin-6-yl)-3-methyl-2-oxa-8-azaspiro[4.5]decan-4-ol]
< 1000	NC1=NCCC12CCN(c1cnc3c(N4CCCc5ncccc54)n[nH]c3n1)CC2 [Compound 202, 8-(3-(3,4-dihydro-1,5-naphthyridin-1(2H)-yl)-1H-pyrazolo[3,4-b]pyrazin-6-yl)-2,8-diazaspiro[4.5]dec-1-en-1-amine dihydrochloride]
1000 to 10000	NC1CCCC12CCN(c1cnc3c(N4CCCc5ncccc54)n[nH]c3n1)C2 (stereo not drawn) [Compound 203, 2-(3-(3,4-dihydro-1,5-naphthyridin-1(2H)-yl)-1H-pyrazolo[3,4-b]pyrazin-6-yl)-2-azaspiro[4.4]nonan-6-amine]
< 1000	C[C@@H]1OCC2(CCN(c3cnc4c(N5CCCc6c5ccc(C#N)c6C5CC5)n[nH]c4n3)CC2)[C@@H]1N [Compound 207]
< 1000	Cc1c(C#N)ccc2c1CCCN2c1n[nH]c2nc(N3CCC4(CC3)CO[C@@H](C)[C@H]4N)cnc12 [Compound 208]
< 1000	C[C@@H]1OCC2(CCN(c3cnc4c(N5CCCc6c(-c7cnn(C)c7)cccc65)n[nH]c4n3)CC2)[C@@H]1N [Compound 209]
1000 to 10000	C[C@@H]1OCC2(CCN(c3cnc4c(N5CCCc6c5ccc(C#N)c6-c5cnn(C)c5)n[nH]c4n3)CC2)[C@@H]1N [Compound 210]
< 1000	N[C@H]1CCCC12CCN(c1cnc3c(N4CCCc5ncccc54)n[nH]c3n1)CC2 [Compound 211]
< 1000	N[C@@H]1CCCC12CCN(c1cnc3c(N4CCCc5ncccc54)n[nH]c3n1)CC2 [Compound 212]
< 1000	N[C@H]1COCC12CCN(c1cnc3c(N4CCCc5ncccc54)n[nH]c3n1)CC2 [Compound 213]
< 1000	N[C@@H]1COCC12CCN(c1cnc3c(N4CCCc5ncccc54)n[nH]c3n1)CC2 [Compound 214]
1000 to 10000	O=C1NC2(CCN(c3cnc4c(N5CCCc6ncccc65)n[nH]c4n3)CC2)CO1 [Compound 215]
< 1000	NC1=NC2(CCN(c3cnc4c(N5CCCc6ncccc65)n[nH]c4n3)CC2)CO1 [Compound 216, 8-(3-(3,4-dihydro-1,5-naphthyridin-1(2H)-yl)-1H-pyrazolo[3,4-b]pyrazin-6-yl)-3-oxa-1,8-diazaspiro[4.5]dec-1-en-2-amine hydrochloride]
< 1000	C[C@@H]1OCC2(CCN(c3cnc4c(N5CCCc6cc(C#N)ccc65)n[nH]c4n3)CC2)[C@@H]1N [Compound 217]
< 1000	CC1CCN(c2n[nH]c3nc(N4CCC5(CC4)CO[C@@H](C)[C@H]5N)cnc23)c2ccc(C#N)cc21 (stereo partly drawn) [Compound 218]
< 1000	C[C@@H]1CCN(c2n[nH]c3nc(N4CCC5(CC4)CO[C@@H](C)[C@H]5N)cnc23)c2ccc(C#N)cc21 [Compound 219]

IC50 [nM]	Compound
< 1000	C[C@@H]1OCC2(CCN(c3cnc4c(N5CC[C@H](C)c6cc(C#N)ccc65)n[nH]c4n3)CC2)[C@@H]1N [Compound 220]
< 1000	C[C@@H]1OCC2(CCN(c3cnc4c(N5CCc6c(-c7nccs7)cccc65)n[nH]c4n3)CC2)[C@@H]1N [Compound 221]
1000 to 10000	CC1CCN(c2n[nH]c3nc(N4CCC5(CC4)CNC(=O)C5)cnc23)c2cccnc21 (stereo not drawn) [Compound 222, 8-[3-(4-methyl-1,2,3,4-tetrahydro-1,5-naphthyridin-1-yl)-1H-pyrazolo[3,4-b]pyrazin-6-yl]-2,8-diazaspiro[4.5]decan-3-one]
< 1000	CC1CCN(c2n[nH]c3nc(N4CCC5(CC4)CO[C@@H](C)[C@H]5N)cnc23)c2cc(F)c(C#N)cc21 (stereo partly drawn) [Compound 223]
< 1000	C[C@@H]1OCC2(CCN(c3cnc4c(N5CCCc6nc(-c7cnn(C)c7)ccc65)n[nH]c4n3)CC2)[C@@H]1N [Compound 224, (3S,4S)-3-methyl-8-(3-(6-(1-methyl-1H-pyrazol-4-yl)-3,4-dihydro-1,5-naphthyridin-1(2H)-yl)-1H-pyrazolo[3,4-b]pyrazin-6-yl)-2-oxa-8-azaspiro[4.5]decan-4-amine]
< 1000	C[C@@H]1OCC2(CCN(c3cnc4c(N5CCCc6c5ccnc6N5CCOC5=O)n[nH]c4n3)CC2)[C@@H]1N [Compound 225]
< 1000	C[C@@H]1OCC2(CCN(c3cnc4c(N5CCCc6c5ccnc6-c5cnn(C)c5)n[nH]c4n3)CC2)[C@@H]1N [Compound 226]
< 1000	C[C@@H]1OCC2(CCN(c3cnc4c(N5CC[C@H](C)c6cc(-c7ncon7)ccc65)n[nH]c4n3)CC2)[C@@H]1N [Compound 227, (3S,4S)-3-methyl-8-(3-((S)-4-methyl-6-(1,2,4-oxadiazol-3-yl)-3,4-dihydroquinolin-1(2H)-yl)-1H-pyrazolo[3,4-b]pyrazin-6-yl)-2-oxa-8-azaspiro[4.5]decan-4-amine]
< 1000	C[C@@H]1OCC2(CCN(c3cnc4c(N5CCCc6c5ccnc6C#N)n[nH]c4n3)CC2)[C@@H]1N [Compound 228]
< 1000	C[C@@H]1OCC2(CCN(c3cnc4c(N5CCC(=C(F)F)c6ccccc65)n[nH]c4n3)CC2)[C@@H]1N [Compound 231]
< 1000	C[C@@H]1OCC2(CCN(c3cnc4c(N5CCCc6c5ccnc6C5CC5)n[nH]c4n3)CC2)[C@@H]1N [Compound 232]
< 1000	C[C@@H]1OCC2(CCN(c3cnc4c(N5CCNc6ccccc65)n[nH]c4n3)CC2)[C@@H]1N [Compound 234]
< 1000	CC(=O)N1CCN(c2n[nH]c3nc(N4CCC5(CC4)CO[C@@H](C)[C@H]5N)cnc23)c2ccccc21 [Compound 235]
< 1000	C[C@@H]1OCC2(CCN(c3cnc4c(N5CCCc6c5ccnc6C(F)F)n[nH]c4n3)CC2)[C@@H]1N [Compound 236]
< 1000	C[C@@H]1OCC2(CCN(c3cnc4c(N5CCCc6nc(C7=CCOCC7)ccc65)n[nH]c4n3)CC2)[C@@H]1N [Compound 237]
< 1000	C[C@@H]1OCC2(CCN(c3cnc4c(N5CC(=O)N(C)c6ccccc65)n[nH]c4n3)CC2)[C@@H]1N [Compound 238]
< 1000	C[C@@H]1OCC2(CCN(c3cnc4c(N5CCCc6nc(C7CCOCC7)ccc65)n[nH]c4n3)CC2)[C@@H]1N [Compound 239]
< 1000	C[C@@H]1OCC2(CCN(c3cnc4c(N5CCCc6c5ccn(C)c6=O)n[nH]c4n3)CC2)[C@@H]1N [Compound 240]
< 1000	C[C@@H]1OCC2(CCN(c3cnc4c(N5CC(=O)Nc6cnccc65)n[nH]c4n3)CC2)[C@@H]1N [Compound 241]
< 1000	C[C@@H]1OCC2(CCN(c3cnc4c(N5CCCc6nc(C(N)=O)ccc65)n[nH]c4n3)CC2)[C@@H]1N [Compound 243, 5-(6-((3S,4S)-4-amino-3-methyl-2-oxa-8-azaspiro[4.5]decan-8-yl)-1H-pyrazolo[3,4-b]pyrazin-3-yl)-5,6,7,8-tetrahydro-1,5-naphthyridine-2-carboxamide]
< 1000	C[C@@H]1OCC2(CCN(c3cnc4c(N5CCCc6c(C(=O)O)cccc65)n[nH]c4n3)CC2)[C@@H]1N [Compound 244, 1-(6-((3S,4S)-4-amino-3-methyl-2-oxa-8-azaspiro[4.5]decan-8-yl)-1H-pyrazolo[3,4-b]pyrazin-3-yl)-1,2,3,4-tetrahydroquinoline-5-carboxylic Acid]
< 1000	C[C@@H]1OCC2(CCN(c3cnc4c(N5CCCc6nc(-c7ncon7)ccc65)n[nH]c4n3)CC2)[C@@H]1N [Compound 246, (3S,4S)-8-(3-(6-(1,2,4-oxadiazol-3-yl)-3,4-dihydro-1,5-naphthyridin-1(2H)-yl)-1H-pyrazolo[3,4-b]pyrazin-6-yl)-3-methyl-2-oxa-8-azaspiro[4.5]decan-4-amine]
< 1000	C[C@@H]1OCC2(CCN(c3cnc4c(N5CCNc6ncccc65)n[nH]c4n3)CC2)[C@@H]1N [Compound 247]
< 1000	C[C@@H]1OCC2(CCN(c3cnc4c(N5CCCc6nc(C#N)ccc65)n[nH]c4n3)CC2)[C@@H]1N [Compound 248]
< 1000	C[C@@H]1OCC2(CCN(c3cnc4c(N5CCC(C(F)F)c6ccccc65)n[nH]c4n3)CC2)[C@@H]1N (stereo partly drawn) [Compound 250]

Compound	IC50 [nM]
Cc1nccc2c1CCCN2c1n[nH]c2nc(N3CCC4(CC3)CO[C@@H](C)[C@H]4N)cnc12 [Compound 233]	< 1000

— patent US11591336B2 (Relay Therapeutics, Inc., priority 2017, dated 2023)
